Experiments:
Type in all cases: cell-based
in vitro = test: in vitro
Procedure: COS-1 and CHO-K1 cell suspensions were prepared, seeded into 96-well tissue culture treated black-walled microtiter plates (density determined by cell line), and incubated overnight at 37° C., in 5% CO2 and approximately 95% humidity. The following day, serial dilutions of drug were prepared under sterile conditions and transferred to cell plates. Cell/Drug plates were incubated under the above conditions for 24 hours. Following the incubation period, media/drug was aspirated and 50 μL of Resazurin (0.042 mg/ml in PBS w/Ca and Mg) was added. The plates were then incubated under the above conditions for 2 hours and then in the dark at room temperature for an additional 30 minutes. Fluorescence measurements were taken (excitation 535 nm, emission 590 nm). The IC50 (concentration of drug causing 50% growth inhibition) was then calculated.

S. pneumoniae 157E = test: In vitro minimum inhibitory concentration (MIC) assay, S. pneumoniae; design: key: Compounds which showed superior inhibition of S. aureus, S. pseumoniae and E. coli are indicated by “***,”; compounds which showed very good or good inhibition of S. aureus, S. pseumoniae and E. coli are indicated by “**” or “*” respectively; compounds which showed very good or good inhibition of S. aureus, S. pseumoniae and E. coli are indicated by “**” or “*” respectively; conditions: broth microdilution in CAMHB, 35° C., approximately 18 hour
Procedure: (§1) The following assay is used to determine the efficacy of the tetracycline compounds against common bacteria. 2 mg of each compound is dissolved in 100 μl of DMSO. The solution is then added to cation-adjusted Mueller Hinton broth (CAMHB), which results in a final compound concentration of 200 μg per ml. The tetracycline compound solutions are diluted to 50 μL volumes, with a test compound concentration of 0.098 μg/ml. Optical density (OD) determinations are made from fresh log-phase broth cultures of the test strains. Dilutions are made to achieve a final cell density of 1×10^6 CFU/ml. At OD=1, cell densities for different genera should be approximately:
(§2) 50 μl of the cell suspensions are added to each well of microtiter plates. The final cell density should be approximately 5×10^5 CFU/ml. These plates are incubated at 35° C. in an ambient air incubator for approximately 18 hour. The plates are read with a microplate reader and are visually inspected when necessary. The MIC is defined as the lowest concentration of the tetracycline compound that inhibits growth.
(§3) Table 3 gives the MIC (μg/mL) of selected substituted tetracycline compounds against S. aureus, S. pseuimoniae, and E. coli.

E. coli MG 1655 = test: In vitro minimum inhibitory concentration (MIC) assay, E. coli; design: key: Compounds which showed superior inhibition of S. aureus, S. pseumoniae and E. coli are indicated by “***,”; compounds which showed very good or good inhibition of S. aureus, S. pseumoniae and E. coli are indicated by “**” or “*” respectively; compounds which showed very good or good inhibition of S. aureus, S. pseumoniae and E. coli are indicated by “**” or “*” respectively; conditions: broth microdilution in CAMHB, 35° C., approximately 18 hour
Procedure: as §1, §2, §3

S. aureus RN450 = test: In vitro minimum inhibitory concentration (MIC) assay, S. aureus; design: key: Compounds which showed superior inhibition of S. aureus, S. pseumoniae and E. coli are indicated by “***,”; compounds which showed very good or good inhibition of S. aureus, S. pseumoniae and E. coli are indicated by “**” or “*” respectively; compounds which showed very good or good inhibition of S. aureus, S. pseumoniae and E. coli are indicated by “**” or “*” respectively; conditions: broth microdilution in CAMHB, 35° C., approximately 18 hour
Procedure: as §1, §2, §3

SMILES | IC50 at 24 h (in vitro) [mg/L] | Median MIC for S. pneumoniae 157E (S. pneumoniae 157E) | Median MIC for E. coli MG 1655 (E. coli MG 1655) | Median MIC for S. aureus RN450 (S. aureus RN450)
C[C@H]1c2cccc(O)c2C(=O)C2=C(O)[C@]3(O)C(=O)C(C(N)=O)=C(O)[C@@H](N(C)C)[C@@H]3[C@@H](O)[C@@H]21 [doxycycline, Doxycycline] | > 25 |  |  | 
CN(C)c1cc(C(=O)NOC(C)(C)C)c(O)c2c1C[C@H]1C[C@H]3[C@H](N(C)C)C(O)=C(C(N)=O)C(=O)[C@@]3(O)C(O)=C1C2=O |  | * | * | *
CN(C)c1cc(-c2ccc(C#N)nc2)c(O)c2c1C[C@H]1C[C@H]3[C@H](N(C)C)C(O)=C(C(N)=O)C(=O)[C@@]3(O)C(O)=C1C2=O |  | *** | * | ***
CCCCNC(=O)c1cc(N(C)C)c2c(c1O)C(=O)C1=C(O)[C@]3(O)C(=O)C(C(N)=O)=C(O)[C@@H](N(C)C)[C@@H]3C[C@@H]1C2 |  | * | * | *
CCCN(CC)C(=O)c1cc(N(C)C)c2c(c1O)C(=O)C1=C(O)[C@]3(O)C(=O)C(C(N)=O)=C(O)[C@@H](N(C)C)[C@@H]3C[C@@H]1C2 |  | * | * | *
CCNC(=O)c1cc(N(C)C)c2c(c1O)C(=O)C1=C(O)[C@]3(O)C(=O)C(C(N)=O)=C(O)[C@@H](N(C)C)[C@@H]3C[C@@H]1C2 |  | * | * | *
CN(C)c1cc(C#N)c(O)c2c1C[C@H]1C[C@H]3[C@H](N(C)C)C(O)=C(C(N)=O)C(=O)[C@@]3(O)C(O)=C1C2=O |  | *** | ** | ***
CN(C)c1cc(-c2ncco2)c(O)c2c1C[C@H]1C[C@H]3[C@H](N(C)C)C(O)=C(C(N)=O)C(=O)[C@@]3(O)C(O)=C1C2=O |  | ** | * | **
CN(C)c1cc(-c2ccsc2)c(O)c2c1C[C@H]1C[C@H]3[C@H](N(C)C)C(O)=C(C(N)=O)C(=O)[C@@]3(O)C(O)=C1C2=O |  | *** | * | ***
CN(C)c1cc(C(=O)NO)c(O)c2c1C[C@H]1C[C@H]3[C@H](N(C)C)C(O)=C(C(N)=O)C(=O)[C@@]3(O)C(O)=C1C2=O |  | * | * | *
CN(C)c1cc(C(N)=O)c(O)c2c1C[C@H]1C[C@H]3[C@H](N(C)C)C(O)=C(C(N)=O)C(=O)[C@@]3(O)C(O)=C1C2=O |  | * | * | *
CN(C)c1ccc(O)c2c1C[C@H]1C[C@H]3[C@H](N(C)C)C(O)=C(C(N)=O)C(=O)[C@@]3(O)C(O)=C1C2=O [minocycline, Minocycline] | > 25 |  |  | 
CN(C)c1cc(-c2cccc(C(N)=O)c2)c(O)c2c1C[C@H]1C[C@H]3[C@H](N(C)C)C(O)=C(C(N)=O)C(=O)[C@@]3(O)C(O)=C1C2=O |  | ** | * | ***
CN(C)c1cc(-c2cn[nH]c2)c(O)c2c1C[C@H]1C[C@H]3[C@H](N(C)C)C(O)=C(C(N)=O)C(=O)[C@@]3(O)C(O)=C1C2=O |  | * | * | *
CN(C)c1cc(-c2cc[nH]n2)c(O)c2c1C[C@H]1C[C@H]3[C@H](N(C)C)C(O)=C(C(N)=O)C(=O)[C@@]3(O)C(O)=C1C2=O |  | ** | * | ***
CN(C)c1cc(C(=O)NCCN)c(O)c2c1C[C@H]1C[C@H]3[C@H](N(C)C)C(O)=C(C(N)=O)C(=O)[C@@]3(O)C(O)=C1C2=O |  | *** | * | *
CN(C)c1cc(-c2ccccn2)c(O)c2c1C[C@H]1C[C@H]3[C@H](N(C)C)C(O)=C(C(N)=O)C(=O)[C@@]3(O)C(O)=C1C2=O |  | *** | * | ***
CN(C)c1cc(-c2ccc(C(=O)O)s2)c(O)c2c1C[C@H]1C[C@H]3[C@H](N(C)C)C(O)=C(C(N)=O)C(=O)[C@@]3(O)C(O)=C1C2=O |  | * | * | *
CN(C)c1cc(C(=O)N2CCCCCC2)c(O)c2c1C[C@H]1C[C@H]3[C@H](N(C)C)C(O)=C(C(N)=O)C(=O)[C@@]3(O)C(O)=C1C2=O |  | * | * | **
COC(=O)CNC(=O)c1cc(N(C)C)c2c(c1O)C(=O)C1=C(O)[C@]3(O)C(=O)C(C(N)=O)=C(O)[C@@H](N(C)C)[C@@H]3C[C@@H]1C2 |  | * | * | *

Source: patent publication US8466132B2, “Substituted tetracycline compounds” (Paratek Pharmaceuticals, Inc., priority 2004, dated 2013)
